Source: ChEMBL document CHEMBL1135198, “Structure-activity relationships of non-imidazole H(3) receptor ligands. Part 1” (Bioorg Med Chem Lett, 2002)

Columns and labels:
Histamine H1 receptor = Histamine H1 receptor (Homo sapiens, UniProt P35367); assay: Binding affinity for the human Histamine H1 Receptor
Histamine H2 receptor = Histamine H2 receptor (Homo sapiens, UniProt P25021); assay: Binding affinity for the human Histamine H2 receptor
Histamine H3 receptor = Histamine H3 receptor (Rattus norvegicus, UniProt Q9QYN8); assay: Binding affinity for the rat cortical Histamine H3 receptor
Chain of Histamine H3 receptor (Q9QYN8 whole entry): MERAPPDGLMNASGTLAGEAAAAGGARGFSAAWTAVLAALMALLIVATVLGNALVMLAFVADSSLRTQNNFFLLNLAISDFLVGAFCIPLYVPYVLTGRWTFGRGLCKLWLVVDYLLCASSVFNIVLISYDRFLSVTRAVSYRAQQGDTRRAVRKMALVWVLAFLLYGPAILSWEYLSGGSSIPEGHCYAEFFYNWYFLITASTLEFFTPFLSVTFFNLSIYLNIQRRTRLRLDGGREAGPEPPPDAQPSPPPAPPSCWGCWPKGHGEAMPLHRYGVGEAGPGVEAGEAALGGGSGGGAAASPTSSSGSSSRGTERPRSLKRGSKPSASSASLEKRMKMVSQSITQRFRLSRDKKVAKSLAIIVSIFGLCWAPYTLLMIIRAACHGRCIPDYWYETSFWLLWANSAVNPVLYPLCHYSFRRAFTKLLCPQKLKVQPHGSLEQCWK

Chain of Histamine H1 receptor (P35367 whole entry): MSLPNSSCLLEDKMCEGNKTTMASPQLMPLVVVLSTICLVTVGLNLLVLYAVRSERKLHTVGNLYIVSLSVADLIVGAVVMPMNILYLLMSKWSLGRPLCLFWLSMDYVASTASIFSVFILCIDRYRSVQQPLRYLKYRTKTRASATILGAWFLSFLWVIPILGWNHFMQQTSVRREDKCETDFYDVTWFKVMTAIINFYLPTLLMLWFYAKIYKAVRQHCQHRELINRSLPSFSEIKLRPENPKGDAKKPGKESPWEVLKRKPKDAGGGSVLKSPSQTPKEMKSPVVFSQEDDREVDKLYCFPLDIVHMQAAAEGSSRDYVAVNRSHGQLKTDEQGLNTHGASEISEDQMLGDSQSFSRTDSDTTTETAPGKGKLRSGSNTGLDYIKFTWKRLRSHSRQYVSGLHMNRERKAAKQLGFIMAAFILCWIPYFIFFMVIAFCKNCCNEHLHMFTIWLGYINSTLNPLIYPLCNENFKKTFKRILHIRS
Chain of Histamine H2 receptor (P25021 whole entry): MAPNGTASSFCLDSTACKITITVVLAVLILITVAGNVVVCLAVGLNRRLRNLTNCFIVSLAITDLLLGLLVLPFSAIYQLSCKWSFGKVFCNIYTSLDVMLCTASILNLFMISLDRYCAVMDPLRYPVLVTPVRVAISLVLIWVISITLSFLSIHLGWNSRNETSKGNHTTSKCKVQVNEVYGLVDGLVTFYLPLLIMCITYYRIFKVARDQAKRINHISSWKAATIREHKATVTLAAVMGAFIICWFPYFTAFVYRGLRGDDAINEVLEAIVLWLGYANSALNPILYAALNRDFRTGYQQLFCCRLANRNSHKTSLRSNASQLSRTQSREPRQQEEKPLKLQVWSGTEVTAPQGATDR

| Compound | Ki (Histamine H1 receptor) | Ki (Histamine H2 receptor) | Ki (Histamine H3 receptor) |
| --- | --- | --- | --- |
| CCCCCC(=O)c1ccc(OCCCN2CCN(C(=O)C(C)C)CC2)cc1 | 3.98 µM | 29.5 µM |  |
| CCCCCC(=O)c1ccc(OCCCN2CCN(C(=O)c3ccco3)CC2)cc1 | 0.398 µM | 20 µM | 0.0105 µM |
| CCCCCC(=O)c1ccc(OCCCN2CCN(C(=O)C(C)(C)O)CC2)cc1 | 21.4 µM | 24.5 µM | 0.0575 µM |
| CCCCCC(=O)c1ccc(OCCCN2CCN(C(=O)N3CCOCC3)CC2)cc1 | 4.17 µM | 17.8 µM | 0.00589 µM |
| CCCCCC(=O)c1ccc(OCCCN2CCN(Cc3nccs3)CC2)cc1 | 0.0603 µM | 7.08 µM | 0.0166 µM |
| CCCCCC(=O)c1ccc(OCCCN2CCN(C(=O)c3cnco3)CC2)cc1 | 4.27 µM | 27.5 µM | 0.0447 µM |
| CCCCCC(=O)c1ccc(OCCCN2CCN(C(=O)CSCC)CC2)cc1 | 1.1 µM | 22.9 µM | 0.011 µM |
| CCCCCC(=O)c1ccc(OCCCN2CCN(C(=O)OCC(C)C)CC2)cc1 | 0.275 µM | 3.72 µM | 0.01 µM |
| CCOC(=O)N1CCN(CCCOc2ccc(C(=O)CC)cc2)CC1 | 1.66 µM | 56.2 µM | 0.00537 µM |
| CCCCCC(=O)c1ccc(OCCCN2CCN(C(=O)NC(C)C)CC2)cc1 | 1.2 µM | 11.2 µM | 0.00955 µM |
| CCOC(=O)N1CCN(CCCOc2ccc(C(=O)c3ccc(C(C)(C)C)cc3)cc2)CC1 | 0.562 µM | 1.55 µM | 0.0132 µM |
| CCCCCC(=O)c1ccc(OCCCN2CCN(S(C)(=O)=O)CC2)cc1 | 26.3 µM | 83.2 µM | 0.0214 µM |
| CCCCCC(=O)c1ccc(OCCCN2CCN(C(=O)c3cnccn3)CC2)cc1 | 2.04 µM | 46.8 µM | 0.0182 µM |
| CCOC(=O)N1CCN(CCCOc2ccc(C(C)=O)cc2)CC1 | 2.24 µM | 39.8 µM | 0.00501 µM |
| CCCCCC(=O)c1ccc(OCCCN2CCN(C(=O)c3ccc(C)s3)CC2)cc1 | 0.0977 µM | 8.13 µM | 0.0158 µM |
| CCCCCC(=O)c1ccc(OCCCN2CCN(C(=O)C3CCC3)CC2)cc1 | 0.355 µM | 10.2 µM | 0.00316 µM |
| CCCCCC(=O)c1ccc(OCCCN2CCN(C(=O)N3CCCC3)CC2)cc1 | 1.05 µM | 14.8 µM | 0.00741 µM |
| CCOC(=O)N1CCN(CCCOc2ccc(C(=O)C=C(C)C)cc2)CC1 | 0.355 µM | 21.9 µM | 0.0389 µM |
| CCCCCC(=O)c1ccc(OCCCN2CCN(S(=O)(=O)c3ccc(C#N)cc3)CC2)cc1 | 13.5 µM | 12.3 µM | 0.0372 µM |
| CCCCCC(=O)c1ccc(OCCCN2CCN(C(=O)Cc3ccccc3)CC2)cc1 | 0.0562 µM | 8.91 µM | 0.01 µM |
| CCCCCC(=O)c1ccc(OCCCN2CCN(CCC)CC2)cc1 | 3.39 µM | 27.5 µM | 0.0275 µM |
| CCCCCC(=O)c1ccc(OCCCN2CCN(S(=O)(=O)C(C)C)CC2)cc1 | 11.2 µM | 20.9 µM | 0.0126 µM |
| CCCCCC(=O)c1ccc(OCCCN2CCN(CC3CC3)CC2)cc1 | 2.24 µM | 18.6 µM | 0.0158 µM |
| CCOC(=O)N1CCN(CCCOc2ccc(C(=O)/C=C/c3ccc(OC)cc3)cc2)CC1 | 0.617 µM | 6.76 µM | 0.00724 µM |
| CCCCCC(=O)c1ccc(OCCCN2CCN(C(=O)CC)CC2)cc1 | 1.91 µM | 31.6 µM | 0.00316 µM |
| CCOC(=O)N1CCN(CCCOc2ccc(C(=O)C3CC3)cc2)CC1 | 1.41 µM | 79.4 µM | 0.00468 µM |

Further lines, results first:

| Ki (Histamine H1 receptor) | Ki (Histamine H2 receptor) | Ki (Histamine H3 receptor) | Compound |
| --- | --- | --- | --- |
| 0.0562 µM | 11.7 µM | 0.00407 µM | CCCCCC(=O)c1ccc(OCCCN2CCN(C(=O)c3cccn3C)CC2)cc1 |
| 0.479 µM | 22.4 µM | 0.00631 µM | CCCCCC(=O)c1ccc(OCCCN2CCN(C(=O)c3ccncc3)CC2)cc1 |
| 0.447 µM | 6.17 µM | 0.0589 µM | CCOC(=O)N1CCN(CCCOc2ccc(C(=O)c3ccc(SC)cc3)cc2)CC1 |
| 0.275 µM | 12.6 µM | 0.00138 µM | CCCCCC(=O)c1ccc(OCCCN2CCN(C(=O)OCC)CC2)cc1 |
| 0.603 µM | 7.94 µM | 0.0251 µM | CCOC(=O)N1CCN(CCCOc2ccc(C(=O)C3CCCCC3)cc2)CC1 |
| 0.38 µM | 3.72 µM | 0.288 µM | CCOC(=O)N1CCN(CCCOc2ccc(C(=O)c3cccc(C)c3)cc2)CC1 |
| 0.457 µM | 9.55 µM | 0.00933 µM | CCCCCC(=O)c1ccc(OCCCN2CCN(CC(C)C)CC2)cc1 |
| 0.501 µM | 2.69 µM | 0.00794 µM | CCCCCCCCC(=O)c1ccc(OCCCN2CCN(C(=O)OCC)CC2)cc1 |
| 0.977 µM | 22.4 µM | 0.055 µM | C=C(C)C(=O)c1ccc(OCCCN2CCN(C(=O)OCC)CC2)cc1 |
| 0.209 µM | 42.7 µM | 0.0676 µM | CCOC(=O)N1CCN(CCCOc2ccc(C(=O)c3ccc(F)cc3)cc2)CC1 |
|  |  | 58.9 µM | CCCCCC(=O)c1ccc(OCCCC2CCNCC2)cc1 |
| 1.58 µM | 23.4 µM | 0.0214 µM | CCCCCC(=O)c1ccc(OCCCN2CCN(C(=O)NCC)CC2)cc1 |
| 0.417 µM | 18.6 µM | 0.0525 µM | CCCCCC(=O)c1ccc(OCCCN2CCN(C(=O)c3ccccn3)CC2)cc1 |
| 0.933 µM | 12.6 µM | 0.0692 µM | CCOC(=O)N1CCN(CCCOc2ccc(C(=O)Cc3ccccc3)cc2)CC1 |
| 0.933 µM | 69.2 µM | 0.00724 µM | CCOC(=O)N1CCN(CCCOc2ccc(C(=O)CC(C)C)cc2)CC1 |
| 0.427 µM | 25.1 µM | 0.00631 µM | CCOC(=O)N1CCN(CCCOc2ccc(C(=O)/C=C/c3cccnc3)cc2)CC1 |
| 6.03 µM | 14.5 µM | 0.0269 µM | CCCCCC(=O)c1ccc(OCCCN2CCNCC2)cc1 |

| Ki (Histamine H1 receptor) | Ki (Histamine H2 receptor) | Ki (Histamine H3 receptor) | Compound |
| --- | --- | --- | --- |
| 0.871 µM | 22.9 µM | 0.00646 µM | CCCCCC(=O)c1ccc(OCCCN2CCN(C(=O)CCC)CC2)cc1 |
| 1.78 µM | 31.6 µM | 0.00214 µM | CCCCCC(=O)c1ccc(OCCCN2CCN(C(=O)C3CC3)CC2)cc1 |
| 0.288 µM | 12.3 µM | 0.0363 µM | CCCCCC(=O)c1ccc(OCCCN2CCN(C(=O)c3ccccc3)CC2)cc1 |
| 0.562 µM | 2.14 µM | 0.00372 µM | CCCCCCCC(=O)c1ccc(OCCCN2CCN(C(=O)OCC)CC2)cc1 |
| 1.07 µM | 12 µM | 0.00302 µM | CCCCCC(=O)c1ccc(OCCCN2CCN(C(=O)OC)CC2)cc1 |
| 0.741 µM | 22.4 µM | 0.00363 µM | CCCC(=O)c1ccc(OCCCN2CCN(C(=O)OCC)CC2)cc1 |
| 0.105 µM | 12.9 µM | 0.00851 µM | CCCCCC(=O)c1ccc(OCCCN2CCN(C(=O)c3occc3C)CC2)cc1 |
| 0.0741 µM | 14.8 µM | 0.0162 µM | CCCCCC(=O)c1ccc(OCCCN2CCN(C(=O)c3cccs3)CC2)cc1 |
| 0.724 µM | 60.3 µM | 0.0204 µM | CCCCCC(=O)c1ccc(OCCCN2CCN(C(=O)c3cccnc3)CC2)cc1 |
| 0.309 µM | 17.8 µM | 0.00501 µM | CCCCCC(=O)c1ccc(OCCCN2CCN(C(=O)OC(C)C)CC2)cc1 |
| 0.575 µM | 1.86 µM | 0.0204 µM | CCCCCC(=O)c1ccc(OCCCN2CCN(C(=O)OCCCC)CC2)cc1 |
| 0.813 µM | 8.32 µM | 0.0398 µM | CCOC(=O)N1CCN(CCCOc2ccc(C(=O)c3ccc(OC)cc3)cc2)CC1 |
| 0.0794 µM | 19.5 µM | 0.0295 µM | CCCCCC(=O)c1ccc(OCCCN2CCN(C(=O)c3sccc3Cl)CC2)cc1 |
| 0.525 µM | 19.5 µM | 0.00447 µM | CCCCCC(=O)c1ccc(OCCCN2CCN(C(=O)c3c[nH]cn3)CC2)cc1 |
| 1.02 µM | 17.4 µM | 0.0251 µM | CCOC(=O)N1CCN(CCCOc2ccc(C(=O)c3cccc(F)c3F)cc2)CC1 |
| 0.661 µM | 7.59 µM | 0.0135 µM | CCCCCC(=O)c1ccc(OCCCN2CCN(CCCC)CC2)cc1 |
|  |  | 0.0631 µM | CCCCCC(=O)c1ccc(OCCCN2CCCCC2)cc1 |
